Experimental data: patent EP1130064A1, “DYE COMPOSITION, INK COMPOSITION, AND INK-JET RECORDING METHOD” (Nippon Kayaku Kabushiki Kaisha, priority 1998, dated 2000)

How the values were obtained:
[1] = Light fastness of recorded image (carbon arc fade meter); type: physicochemical; details: carbon arc 40 hours; for Light fastness Judgment: blue scale grade JIS L-0841; for Light fastness (ΔE): color difference before/after
From the text: (§1) By using an ink-jet printer (Trade name: PICTY80L, made by NEC KK), ink-jet printing was done on five types of recording materials: a plain paper(Printer Paper A4, TLB5A4S, made by Canon KK), a special paper A(Color BJ Paper LC101, made by Canon KK), a special paper B(Color Image Jet Coat Paper STX73A4, made by Sharp KK), a glossy film A(Special Glossy Film MJA4SP6, made by Seiko-Epson KK), and a glossy film B(Color BJ Photo Sheet Film CA-101, made by Canon KK). The test results on hue, vividness, light fastness, and water fastness in recorded images pictured by the water-based yellow ink composition ( X=H, M=Na in Formula (1)) of the present invention are shown in Table 2.
(§2) An ink composition for the comparative example was prepared same as in the above (A), but the ink composition contained C.I. Acid Yellow 17, an azo dye generally applied for an ink-jet yellow dye in place of the dye composition in Table 1 and was adjusted to coincide in optical density with the yellow ink of the present invention. The test results on hue, vividness, light fastness, and water fastness in recorded images pictured by the ink composition for the comparative example also are shown in Table 2. Hue and vividness in the color sample of JNC's JAPAN COLOR are shown in Table 2 (The paper of the color sample Japan Color Standard Paper a paper). (C) Assessment of recorded image
A carbon arc fade meter ( by Suga Testing Machine Co.) was used to irradiate carbon arc on the recorded image for 40 hours. Grade was determined based on blue scale grade as prescribed in JIS L-0841. Color difference (ΔE) between before and after the irradiation also was determined by using the above colorimetry.

[2] = Water fastness of recorded image (stirred in water); type: physicochemical; details: stirred in water 2 min, dried; for Water fastness Judgment: JIS fading gray scale; for Water fastness (ΔE): color difference before/after
From the text: as §1, §2
A recorded material was set in a beaker filled with water, stirred for 2 min and dried. The color fading of the recorded image after treatment was determined based on the JIS fading gray scale. Color difference (ΔE) between before and after the treatment also was determined by using the above colorimetry.

C.I. Acid Yellow 17 [Comparative example 1]
Light fastness Judgment ([1]; Glossy film A): Grade3-4 | Light fastness (ΔE) ([1]; Glossy film A): 17.6 | Light fastness Judgment ([1]; Glossy film B): Grade 2 | Light fastness (ΔE) ([1]; Glossy film B): 64.6 | Light fastness Judgment ([1]; Plain paper): Grade4-5 | Light fastness (ΔE) ([1]; Plain paper): 4.5 | Light fastness Judgment ([1]; Special paper A): Grade 3 | Light fastness (ΔE) ([1]; Special paper A): 33.5 | Light fastness Judgment ([1]; Special paper B): Grade 3 | Light fastness (ΔE) ([1]; Special paper B): 29.4 | Water fastness Judgment ([2]; Glossy film A): Grade4-5 | Water fastness (ΔE) ([2]; Glossy film A): 6.2 | Water fastness Judgment ([2]; Glossy film B): Grade4-5 | Water fastness (ΔE) ([2]; Glossy film B): 4.7 | Water fastness Judgment ([2]; Plain paper): Grade 1 | Water fastness (ΔE) ([2]; Plain paper): 76.8 | Water fastness Judgment ([2]; Special paper A): Grade 3 | Water fastness (ΔE) ([2]; Special paper A): 15.7 | Water fastness Judgment ([2]; Special paper B): Grade 2 | Water fastness (ΔE) ([2]; Special paper B): 39.6
